These results are taken from US11224565B2, “N-acyldipeptide derivatives and their uses” (NeoStrata Company, Inc., priority 2011, dated 2022).

Each structure is given as a SMILES string. Several values for one entry are separate records, joined by “and”; a condition that tells them apart may be missing. Equal values may be shown once. Peptide text beside a SMILES is read from it.

Assay type in all cases: in vivo, human
Test [1] concerns pain and inflammation of joints and muscles. Put plainly: Topical administration for pain and inflammation of sprained leg, shoulder or muscles. On the procedure: A typical example of a topical administration for systemic therapeutic effects was carried out as follows. A subject, having sprained their left leg near the knee with inflammation for several weeks had severe pain each time walking. Massage therapy and conventional treatments provided only a temporary relief. The subject topically applied and rubbed 0.4% (w/v) N—Ac-L-Val-L-Ala-NH2 in WEP442, pH 5.8 as prepared in Example 5 onto the left thigh and calf sites of skin for 30 seconds at night.
The subject topically applied twice daily 0.5% (w/v) N—Ac-L-Tyr-L-Tyr-NH2 in WEP442 solution, pH 6.7 as prepared in Example 5. […] At the end of 5 days, the right shoulder had 90% improvement as determined by clinical evaluation.
The subject topically applied twice daily 0.5% (w/v) N—Ac-L-Val-L-Ala-NH2 in WEP442 solution, pH 6.7 as prepared in Example 5 to the affected area of skin. The pain diminished with less inflammation over the next day.
In yet another embodiment, the volunteer subject topically applied once or twice daily the test compositions containing N-acyldipeptide derivatives of the present invention on the skin site above arthritic joints or painful muscles to provide therapeutic effects for the systemic disorders via topical administration.

The subject of test [2] is insect bites. In words: Topical application to insect bite lesions (itch, erythema, inflammation). On the procedure:
A subject, having intensive itch and erythema on their left arm from insect bites, topically applied 10% (w/w) N—Ac-L-Leu-Gly-NH2 cream as formulated in Example 3 on the involved lesions.
A subject had multiple lesions of insect bites (mosquitoes) over the face and arms with itch and inflammatory lesions of more than 1 cm in size. For testing purposes, the subject divided the lesions into three groups: the first group was treated with vehicle control, the second and third groups were treated with active compositions. The subject topically applied twice daily 0.5% (w/v) N—Ac-L-Val-L-Ala-NH2 solution in WEP442, pH 5.9 on the lesions of the second group, and 0.5% (w/v) N—Ac-L-Tyr-L-Tyr-NH2 solution in WEP442, pH 6.7 (Example 5) on the lesions of the third group. […] The lesions in the second and third groups also started to improve over the next few days. At the end of three days, while there was no discernible change in the lesions treated with vehicle control in the first group, the lesions in the second and third groups had 90-100% improvement with nearly complete disappearance of inflammatory lesions.
A subject had multiple lesions of chigger bites (grass mites) over the legs with intensive itch and red inflammatory lesions. The subject topically applied twice daily 0.5% (w/v) N—Ac-L-Val-L-Ala-NH2 solution in WEP442, pH 6.7 (Example 5) on the lesions. […] The lesions on the legs had 100% improvement as judged by clinical evaluation.
In another embodiment, the volunteer subject topically applied the test compositions containing N-acyldipeptide derivatives of the present invention on involved skin or lesions once or twice daily for several weeks or until the involved lesions completely cleared and clinically changed to normal skin. As a control study, the subject also topically applied a vehicle control composition on the involved skin or lesions twice daily for the same period.

The subject of test [3] is stretch marks. In words: Topical treatment of stretch marks. As to conditions: twice daily, four weeks; 0.5% (w/w) N-Ac-L-Val-L-Ala-NH2 cream on one lesion, 0.5% (w/v) N-Ac-L-Tyr-L-Tyr-NH2 in WEP442 pH 6.7 on the other. An excerpt: Stretch marks, known as striae, are visible linear scars caused by changes in collagen fibers and over stretching of the skin. Stretch marks are quite common in most adult women, and they readily develop at puberty or during pregnancy. They are also very common in obese people with sudden loss of weight. At present, there is no cure or effective treatment.
A subject, having lost a total of about 60 pounds from overweight over the last 10 years, developed multiple lesions of stretch marks over the body. The subject selected two separate lesions of stretch marks, and topically applied twice daily 0.5% (w/w) N—Ac-L-Val-L-Ala-NH2 cream (Example 2) on one lesion and 0.5% (w/v) N—Ac-L-Tyr-L-Tyr-NH2 solution in WEP442, pH 6.7 (Example 5) on the other lesion with untreated lesions of stretch marks as a control.
At the end of four weeks, the fine lines of stretch marks started to disappear, and deeper lines became less deep. The treated lesions had approximately 25% improvement as judged by clinical evaluation.

Test [4] deals with fungal infections of two toe nails. In words: Topical treatment of fungal infections of toe nails. Particulars: twice daily, after several weeks; 0.5% (w/v) N-Ac-L-Tyr-L-Tyr-NH2 in WEP442 pH 6.7 on one nail, 0.5% (w/v) N-Ac-L-Tyr-L-Tyr-NHNHAc in WEP442 pH 5.5 on another. An excerpt:
A subject had fungal infections of two toe nails for many years. Topical treatments with clotrimazole and salicylic acid with or without glycolic acid had not been successful, as shown by the persistent appearance of white and sandy nail plates. The subject topically applied twice daily to one infected nail plate, 0.5% (w/v) N—Ac-L-Tyr-L-Tyr-NH2 in WEP442, pH 6.7 (Example 5), and to another infected nail plate, 0.5% (w/v) N—Ac-L-Tyr-L-Tyr-NHNHAc in WEP442, pH 5.5 (Example 5) for several months. […] Continued topical applications of the formulations should eradicate the nail infections, and the toe nails should start to grow normally.

Test [5] has as its system forearm skin. Put plainly: Skin thickness of forearm by micrometer calipers after topical application. Particulars: for appearance of treated left forearm at end of treatment: 1-3% (w/v) in WEP442 topically twice daily for 1-6 weeks as in the example, vehicle forearm still loose, thin and wrinkled; for increase in skin thickness of treated left forearm: 3% (w/v) in WEP442 topically twice daily, vehicle forearm no change. On the procedure:
In one of the studies related to skin changes associated with aging, skin thickness was measured by micrometer calipers as follows. The skin was grasped with a 2×6 cm metal hinge; the internal faces of which were coated with emery cloth to prevent slippage, and manually squeezed to threshold subject discomfort. Combined thickness of two whole-skin layers including thickness of the two hinge leaves was measured with micrometer calipers. Thickness of the two hinge leaves was subtracted to determine the actual thickness of two whole-skin layers. Triplicate measurements on treated sites were done and an average number was used for calculation of the skin thickness. In other studies, test sites of skin 17 mm in diameter were used, the circular sites were marked with permanent ink. Intervening control sites were also 17 mm in diameter. Thickness of skin of all sites was measured directly by means of an electronic digital caliper. In this instance the jaws of the caliper were opened to 17 mm, applied with pressure to the skin sites and then closed to firm tightness. Thickness of skin was then read off the screen of the calipers. Measurements of all sites were made in triplicates.

[6] abbreviates: mosquito bites face and arms, twice daily, 0.5% (w/v) N-Ac-L-Val-L-Ala-NH2 in WEP442 pH 5.9 (second group), 0.5% (w/v) N-Ac-L-Tyr-L-Tyr-NH2 in WEP442 pH 6.7 (third group).

Consider `CC(=O)N[C@H](C(=O)N[C@@H](C)C(N)=O)C(C)C` [N-Ac-L-Val-L-Ala-NH2] (Ac-Val-Ala-NH2), for which the pain on walking result in test [1] (0.4% (w/v) in WEP442 pH 5.8 rubbed onto left thigh and calf at night, sprained leg, next morning) is given as “could walk slowly without feeling any pain”. Moreover, the “improvement of left leg by clinical evaluation” value in test [1] (0.4% (w/v) in WEP442 pH 5.8 rubbed onto left thigh and calf for 30 seconds at night, sprained leg, next morning) is on record as “approximately 75%”. Besides, the “muscle pain and inflammation in both arms” value in test [1] (0.5% (w/v) in WEP442 pH 6.7 topically twice daily, end of five days) is given as “disappeared completely”. For the same compound, in test [1] (0.5% (w/v) in WEP442 pH 6.7 topically twice daily, muscle pain, end of five days), the “improvement of arms by clinical evaluation” value is reported as 95%-100%. In addition, the “itch after topical application” value is listed as “stopped within a few minutes” in test [2] (0.5% (w/v) in WEP442 pH 6.7 twice daily, chigger bites on legs) and “stopped completely within a few minutes” in test [2] (setting [6]). The “improvement of lesions as judged by clinical evaluation” value in test [2] (0.5% (w/v) in WEP442 pH 6.7 twice daily, chigger bites on legs, end of five days) was determined as 100%. Further, in test [3], the “improvement of treated stretch mark lesions as judged by clinical evaluation” value is given as “approximately 25%”.

With `CC(=O)NNC(=O)[C@H](Cc1ccc(O)cc1)NC(=O)[C@H](Cc1ccc(O)cc1)NC(C)=O` [N-Ac-L-Tyr-L-Tyr-NHNHAc], the “white and sandy appearance of infected nail plates” value in test [4] is recorded as “started to change gradually”. Moreover, the “appearance of treated left forearm at end of treatment” value in test [5] was “more firm, smooth, plump, and less wrinkled when lifted”. The “increase in skin thickness of treated left forearm” value in test [5] (after 2 weeks) is 7%; in test [5] (after 3 weeks) it was 32%; in test [5] (after 6 weeks) it was 23%; in test [5] (after one week) it was 21%.

On to `CC(=O)N[C@@H](Cc1ccc(O)cc1)C(=O)N[C@@H](Cc1ccc(O)cc1)C(N)=O` [N-Ac-L-Tyr-L-Tyr-NH2] (Ac-Tyr-Tyr-NH2), for which the “pain of sprained right shoulder” value in test [1] (0.5% (w/v) in WEP442 pH 6.7 topically twice daily, after three days) is “disappeared completely”. Also, the “improvement of right shoulder by clinical evaluation” value in test [1] (0.5% (w/v) in WEP442 pH 6.7 topically twice daily, end of 5 days) was 90%. Besides, the “itch after topical application” value in test [2] (setting [6]) is “stopped completely within a few minutes”. The “improvement of treated stretch mark lesions as judged by clinical evaluation” value in test [3] was “approximately 25%”. Also, in test [4], the “white and sandy appearance of infected nail plates” value is “started to change gradually”. Further, the “appearance of treated left forearm at end of treatment” value in test [5] was “more firm, smooth, plump, and less wrinkled when lifted”. Moreover, the “increase in skin thickness of treated left forearm” value is 13% and 19% in test [5] (after 2 weeks); 14% in test [5] (after 3 weeks); 17% and 21% in test [5] (after 4 weeks).
